Data taken from the NIST ThermoML archive (doi:10.1016/j.jct.2011.02.002).

Experiment: molar heat capacity at constant pressure
Settings: 101.33 kPa, Crystal, Thermal relaxation technique

[Hf+4].[O-2].[O-2] [hafnium(IV) oxide]
Settings | molar heat capacity at constant pressure [J/K/mol]
1.92 K | 0.0006
2 K | 0.00065
2.04 K | 0.0007
2.19 K | 0.0009
2.48 K | 0.0011
2.8 K | 0.0015
3.09 K | 0.002
3.4 K | 0.0027
3.77 K | 0.0037
4.17 K | 0.0048
4.63 K | 0.0065
5 K | 0.00802
5.17 K | 0.0091
5.74 K | 0.0118
6.4 K | 0.0162
7.11 K | 0.022
7.9 K | 0.0304
8.79 K | 0.0411
9.77 K | 0.0569
10 K | 0.061
10.87 K | 0.0795
12.08 K | 0.1132
13.43 K | 0.1598
14.85 K | 0.2256
16.63 K | 0.3276
18.43 K | 0.4834
20 K | 0.63
20.37 K | 0.6725
22.69 K | 0.967
25.26 K | 1.369
28.1 K | 1.905
30 K | 2.3
31.26 K | 2.569
34.79 K | 3.429
38.68 K | 4.469
40 K | 4.82
43 K | 5.684
47.81 K | 7.049
50 K | 7.72
53.14 K | 8.65
59.07 K | 10.45
65.65 K | 12.39
72.95 K | 14.5
81.06 K | 16.95
90.05 K | 19.69
100 K | 22.26
100.01 K | 22.35
110.26 K | 25.03
120.29 K | 27.43
130.3 K | 29.98
140.32 K | 32.44
150 K | 34.61
150.53 K | 34.59
160.66 K | 36.82
170.61 K | 38.83
180.78 K | 40.81
190.96 K | 42.62
200 K | 44.22
201.26 K | 44.45
211.45 K | 46.16
221.7 K | 48.01
231.89 K | 49.47
242.02 K | 50.89
250 K | 51.9
252.09 K | 52.39
262.17 K | 53.45
272.31 K | 54.56
273.15 K | 54.95
282.4 K | 55.7
292.46 K | 56.89
298.15 K | 57.73
302.51 K | 58.63
